Test results reported in ChEMBL document CHEMBL1201862, “PubChem BioAssay data set” (2004).
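Following 48 hours of exposure in 96-well plates, responses at five concentrations were used to interpolate endpoints linearly. GI50 = concentration required for 50% inhibition of growth.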 Activity calls are given as the source filed them. Rule as the data show it: active = GI50 up to about 1.1 µM and inactive = higher.

Experiments:
Test in all cases: DTP human tumour cell line panel, 48 h
HCT-15 = tested on: HCT-15
SN12C = tested on: SN12C
KM12 = tested on: KM12
SK-MEL-5 = tested on: SK-MEL-5
MDA-MB-231 = tested on: MDA-MB-231
ACHN = tested on: ACHN
MDA-MB-435 = tested on: MDA-MB-435
NCI-H23 = tested on: NCI-H23
UACC-62 = tested on: UACC-62
HCT-116 = tested on: HCT-116
HOP-62 = tested on: HOP-62
HOP-92 = tested on: HOP-92
A549 = tested on: A549
RPMI-8226 = tested on: RPMI-8226
OVCAR-4 = tested on: OVCAR-4
M14 = tested on: M14
SW-620 = tested on: SW-620
IGROV-1 = tested on: IGROV-1
CCRF-CEM = tested on: CCRF-CEM

Structure (SMILES)	GI50 (HCT-15) [µM]	GI50 (SN12C)	GI50 (KM12)	GI50 (SK-MEL-5)	GI50 (MDA-MB-231)	GI50 (ACHN)	GI50 (MDA-MB-435)	GI50 (NCI-H23)	GI50 (UACC-62)	GI50 (HCT-116)	GI50 (HOP-62)	GI50 (HOP-92)	GI50 (A549)	GI50 (RPMI-8226)	GI50 (OVCAR-4)	GI50 (M14)	GI50 (SW-620)	GI50 (IGROV-1)	GI50 (CCRF-CEM)
c1ccc2c(c1)ccc1ncccc12	58.2	> 100 µM (inactive)	> 100 µM (inactive)	75.2 µM (inactive)	> 100 µM (inactive)	> 100 µM (inactive)	> 100 µM (inactive)	> 100 µM (inactive)	83.8 µM (inactive)	> 100 µM (inactive)	> 100 µM (inactive)	44.6 µM (inactive)	> 100 µM (inactive)	> 100 µM (inactive)	> 100 µM (inactive)	> 100 µM (inactive)	> 100 µM (inactive)	> 100 µM (inactive)	
N#Cc1c2ccc([N+](=O)[O-])cc2c(=O)n2c1sc1ccccc12	22.2	24.3 µM (inactive)	31.6 µM (inactive)	22 µM (inactive)	17.2 µM (inactive)	32.4 µM (inactive)	57.7 µM (inactive)	15.2 µM (inactive)	28 µM (inactive)	11.1 µM (inactive)		13.5 µM (inactive)	12.2 µM (inactive)	9.93 µM (inactive)	20.6 µM (inactive)		18.9 µM (inactive)		7.29 µM (inactive)
COc1ccc(C2OC[C@H]3O[C@@H](OCc4ccccc4)[C@H](O)[C@@H](O)[C@@H]3O2)cc1 (stereo not given in full)	> 100	> 100 µM (inactive)		58.2 µM (inactive)	> 100 µM (inactive)	> 100 µM (inactive)	> 100 µM (inactive)	> 100 µM (inactive)	> 100 µM (inactive)	> 100 µM (inactive)	> 100 µM (inactive)	35.8 µM (inactive)	> 100 µM (inactive)	76.9 µM (inactive)	84.5 µM (inactive)		> 100 µM (inactive)	55 µM (inactive)	52.7 µM (inactive)
OCc1cc2c(ccc3sc4ccc5sc6ccc7ncccc7c6c5c4c32)s1	10.7	11 µM (inactive)	6.47 µM (inactive)	4.08 µM (inactive)	4.17 µM (inactive)	31.6 µM (inactive)	24.3 µM (inactive)		7.45 µM (inactive)	8.47 µM (inactive)	12.7 µM (inactive)	29.6 µM (inactive)	11.4 µM (inactive)	13.6 µM (inactive)	25.2 µM (inactive)		28.2 µM (inactive)	7.29 µM (inactive)	19.7 µM (inactive)
O=C(NC(OCc1ccccc1)(C(F)(F)F)C(F)(F)F)OCc1ccccc1	13.8	15.9 µM (inactive)	16.4 µM (inactive)	15.8 µM (inactive)	17.7 µM (inactive)	15.7 µM (inactive)	17.3 µM (inactive)	12.9 µM (inactive)	13.9 µM (inactive)	16.4 µM (inactive)	15.1 µM (inactive)	14.7 µM (inactive)	15 µM (inactive)	16.4 µM (inactive)		18.9 µM (inactive)	17.3 µM (inactive)	15.1 µM (inactive)	16.1 µM (inactive)
C[C@@H]1OC(=O)/C(=C\N(C)C)[C@H]2CC(=O)N(CCc3cn(S(=O)(=O)C(F)(F)F)c4ccccc34)C[C@H]12	> 100	> 100 µM (inactive)	> 100 µM (inactive)	> 100 µM (inactive)	> 100 µM (inactive)	> 100 µM (inactive)	> 100 µM (inactive)	> 100 µM (inactive)		> 100 µM (inactive)	> 100 µM (inactive)	> 100 µM (inactive)	> 100 µM (inactive)	> 100 µM (inactive)	> 100 µM (inactive)	> 100 µM (inactive)	> 100 µM (inactive)	> 100 µM (inactive)	
O=P1(c2ccccc2)C2=CCC=CC2C(c2ccccc2)N1Cc1ccccc1 (stereo not given)	14.5	15.6 µM (inactive)	12.9 µM (inactive)	15.2 µM (inactive)	15.9 µM (inactive)	16.7 µM (inactive)	15.6 µM (inactive)	12.3 µM (inactive)	8.63 µM (inactive)	15.2 µM (inactive)	19.6 µM (inactive)	12.4 µM (inactive)	14.7 µM (inactive)	13.3 µM (inactive)		17.1 µM (inactive)	21 µM (inactive)	16.1 µM (inactive)	15.5 µM (inactive)
CCOP(=O)(C/C=C/Cn1ncc(=O)[nH]c1=O)OCC	> 100	> 100 µM (inactive)	> 100 µM (inactive)	> 100 µM (inactive)	> 100 µM (inactive)	63.2 µM (inactive)	> 100 µM (inactive)				> 100 µM (inactive)	> 100 µM (inactive)	> 100 µM (inactive)	> 100 µM (inactive)	> 100 µM (inactive)	> 100 µM (inactive)	> 100 µM (inactive)	> 100 µM (inactive)	> 100 µM (inactive)
CCOC(=O)c1nc2cc(C(F)(F)F)ccc2nc1Oc1ccc(OC)cc1	> 100	> 100 µM (inactive)	> 100 µM (inactive)	> 100 µM (inactive)	> 100 µM (inactive)	> 100 µM (inactive)	> 100 µM (inactive)		> 100 µM (inactive)	> 100 µM (inactive)		> 100 µM (inactive)	> 100 µM (inactive)	45.4 µM (inactive)	> 100 µM (inactive)	> 100 µM (inactive)	> 100 µM (inactive)	> 100 µM (inactive)	66.2 µM (inactive)
S=C1C(CCCOCc2ccccc2)C2CCCC23CC2(CCN13)OCCS2 (stereo not given)	> 10	> 10 µM (inactive)	> 10 µM (inactive)	> 10 µM (inactive)	> 10 µM (inactive)	> 10 µM (inactive)	> 10 µM (inactive)	> 10 µM (inactive)			> 10 µM (inactive)	> 10 µM (inactive)		> 10 µM (inactive)	> 10 µM (inactive)	> 10 µM (inactive)	> 10 µM (inactive)	> 10 µM (inactive)	> 10 µM (inactive)
CO/C(=N\N=C(/C)C(F)(F)F)c1ccncc1	> 100	> 100 µM (inactive)	> 100 µM (inactive)	> 100 µM (inactive)	> 100 µM (inactive)		> 100 µM (inactive)	> 100 µM (inactive)	> 100 µM (inactive)	> 100 µM (inactive)	> 100 µM (inactive)	> 100 µM (inactive)		> 100 µM (inactive)	> 100 µM (inactive)	> 100 µM (inactive)		> 100 µM (inactive)	> 100 µM (inactive)
C[C@H]1C[C@H](C)c2ccccc2N(C)/C1=N\c1ccccc1	37.2	36.6 µM (inactive)	43.3 µM (inactive)	16.7 µM (inactive)	14.8 µM (inactive)	34.4 µM (inactive)	20.4 µM (inactive)	20.4 µM (inactive)	23.5 µM (inactive)	13.3 µM (inactive)	19.3 µM (inactive)	8.51 µM (inactive)	34.7 µM (inactive)	36.7 µM (inactive)	> 100 µM (inactive)	21.5 µM (inactive)	61.5 µM (inactive)	21.9 µM (inactive)	
O=C1/C(=C2/CCCN2)C(c2ccc[nH]2)=NN1c1ccccc1	> 100	> 100 µM (inactive)	> 100 µM (inactive)	> 100 µM (inactive)	> 100 µM (inactive)	> 100 µM (inactive)	> 100 µM (inactive)	> 100 µM (inactive)	> 100 µM (inactive)	> 100 µM (inactive)		> 100 µM (inactive)	> 100 µM (inactive)	> 100 µM (inactive)	> 100 µM (inactive)	> 100 µM (inactive)	> 100 µM (inactive)		1.75 µM (inactive)
CCOC(NC(=O)CC)(C(F)(F)F)C(F)(F)F	> 100	> 100 µM (inactive)	> 100 µM (inactive)	> 100 µM (inactive)	> 100 µM (inactive)	> 100 µM (inactive)	> 100 µM (inactive)	> 100 µM (inactive)	> 100 µM (inactive)	> 100 µM (inactive)	> 100 µM (inactive)	> 100 µM (inactive)	> 100 µM (inactive)	> 100 µM (inactive)		> 100 µM (inactive)	> 100 µM (inactive)	> 100 µM (inactive)	> 100 µM (inactive)
COc1cc([C@@H]2c3cc4c(cc3[C@@H](/N=C/c3ccc(C(=O)O[C@@H](C(=O)O[C@H]5C[C@@]6(O)[C@@H](OC(=O)c7ccccc7)[C@@H]7[C@]8(OC(C)=O)CO[C@@H]8C[C@H](O)[C@@]7(C)C(=O)[C@H](OC(C)=O)C(=C5C)C6(C)C)[C@@H](NC(=O)c5ccccc5)c5ccccc5)cc3)[C@H]3COC(=O)[C@H]23)OCO4)cc(OC)c1O	13.3	0.0393 µM (active)	0.0094 µM (active)	0.0154 µM (active)	0.116 µM (active)	5.08 µM (inactive)	< 0.005 µM (active)	0.869 µM (active)	0.0815 µM (active)	0.027 µM (active)	0.246 µM (active)	> 36.4 µM (inactive)	0.0266 µM (active)	< 0.005 µM (active)		0.022 µM (active)	0.0297 µM (active)	0.19 µM (active)	0.0118 µM (active)
COc1cc(C2SCC(=O)N2c2cc(Cl)c(Cl)cc2Cl)cc(OC)c1OC (stereo not given)	29.7	36.5 µM (inactive)	31.3 µM (inactive)	25.6 µM (inactive)	> 100 µM (inactive)	42.3 µM (inactive)	30.5 µM (inactive)	50.5 µM (inactive)	22.2 µM (inactive)	38.3 µM (inactive)		28.6 µM (inactive)	38.5 µM (inactive)	32.4 µM (inactive)	38.6 µM (inactive)	54.2 µM (inactive)	82 µM (inactive)	62.4 µM (inactive)	25.4 µM (inactive)
